Reference: patent US9963442B2, “Pyridones as herbicides” (E I DU PONT DE NEMOURS AND COMPANY, priority 2014, dated 2018)

Assays:
Type in all cases: in vivo
Settings in all cases: scale 0 to 100, 0 is no effect, 100 is complete control
[1] = tested on: ragweed (common ragweed, Ambrosia elatior); assay: Test C preemergence
Outline: (§1)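 Surfactant-containing, non-phytotoxic solvent formulation applied either to soil right after sowing (loam/sand) or over the top of emerged plants 2–18 cm tall. Effects were scored visually after 13–15 days, where 0 means no effect and 100 complete control.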

[2] = tested on: winter wheat (Triticum aestivum); assay: Test C preemergence
Outline: as §1

[3] = tested on: velvetleaf (Abutilon theophrasti); assay: Test C preemergence
Outline: as §1

[4] = tested on: oilseed rape (Brassica napus); assay: Test C preemergence
Outline: as §1

[5] = tested on: yellow nutsedge (Cyperus esculentus); assay: Test C preemergence
Outline: as §1

[6] = tested on: morningglory (Ipomoea coccinea); assay: Test C preemergence
Outline: as §1

[7] = tested on: barnyardgrass (Echinochloa crus-galli); assay: Test C preemergence
Outline: as §1

corn (Zea mays) [8] = assay: Test C preemergence
Outline: as §1

[9] = tested on: Italian ryegrass (Lolium multiflorum); assay: Test C preemergence
Outline: as §1

soybean (Glycine max) = assay: Test C postemergence
From the text: (§2) Seeds of plant species selected from blackgrass (Alopecurus myosuroides), Italian ryegrass (Lolium multiflorum), winter wheat (Triticum aestivum), galium (catchweed bedstraw, Galium aparine), corn (Zea mays), large (Lg) crabgrass (Digitaria sanguinalis), giant foxtail (Setaria faberii), johnsongrass (Sorghum halepense), lambsquarters (Chenopodium album), morningglory (Ipomoea coccinea), yellow nutsedge (Cyperus esculentus), pigweed (Amaranthus retroflexus), ragweed (common ragweed, Ambrosia elatior), soybean (Glycine max), barnyardgrass (Echinochloa crus-galli), oilseed rape (Brassica napus), waterhemp (common waterhemp, Amaranthus rudis), and velvetleaf (Abutilon theophrasti) were planted into a blend of loam soil and sand and treated preemergence with test chemicals formulated in a non-phytotoxic solvent mixture which included a surfactant. At the same time, plants selected from these crop and weed species and also chickweed (common chickweed, Stellaria media), kochia (Kochia scoparia), and wild oat (Avena fatua), were planted in pots containing Sunshine Redi-Earth® planting medium comprising spaghnum peat moss, vermiculite, starter nutrients and dolomitic limestone and treated with postemergence applications of test chemicals formulated in the same manner. Plants ranged in height from 2 to 18 cm (1- to 4-leaf stage) for postemergence treatments. Treated plants and controls were maintained in a greenhouse for 13 to 15 days, after which time all species were compared to controls and visually evaluated. Plant response ratings, summarized in Table C, are based on a scale of 0 to 100 where 0 is no effect and 100 is complete control. A dash (-) response means no test result.

[10] = tested on: winter wheat (Triticum aestivum); assay: Test C postemergence
From the text: as §2

[11] = tested on: johnsongrass (Sorghum halepense); assay: Test C postemergence
From the text: as §2

[12] = tested on: blackgrass (Alopecurus myosuroides); assay: Test C postemergence
From the text: as §2

[13] = tested on: velvetleaf (Abutilon theophrasti); assay: Test C postemergence
From the text: as §2

[14] = tested on: yellow nutsedge (Cyperus esculentus); assay: Test C postemergence
From the text: as §2

[15] = tested on: morningglory (Ipomoea coccinea); assay: Test C postemergence
From the text: as §2

[16] = tested on: barnyardgrass (Echinochloa crus-galli); assay: Test C postemergence
From the text: as §2

corn (Zea mays) [17] = assay: Test C postemergence
From the text: as §2

[18] = tested on: galium (catchweed bedstraw, Galium aparine); assay: Test C postemergence
From the text: as §2

kochia (Kochia scoparia) = assay: Test C postemergence
From the text: as §2

[19] = tested on: waterhemp (common waterhemp, Amaranthus rudis); assay: Test C postemergence
From the text: as §2

[20] = tested on: Italian ryegrass (Lolium multiflorum); assay: Test C postemergence
From the text: as §2

[21] = tested on: giant foxtail (Setaria faberii); assay: Test C postemergence
From the text: as §2

O=c1cccc(Oc2ncc(Cl)cn2)n1-c1ccc(C(F)(F)F)cn1 [Compound 7]
Plant response rating, Ragweed ([1]; 16 g ai/ha): 35
Plant response rating, Ragweed ([1]; 31 g ai/ha): 45
Plant response rating, Ragweed ([1]; 62 g ai/ha): 50
Plant response rating, Ragweed ([1]; 125 g ai/ha): 40
Plant response rating, Wheat ([2]; 16 g ai/ha): 0
Plant response rating, Wheat ([2]; 31 g ai/ha): 0
Plant response rating, Wheat ([2]; 62 g ai/ha): 0
Plant response rating, Wheat ([2]; 125 g ai/ha): 0
Plant response rating, Velvetleaf ([3]; 16 g ai/ha): 5
Plant response rating, Velvetleaf ([3]; 31 g ai/ha): 10
Plant response rating, Velvetleaf ([3]; 62 g ai/ha): 35
Plant response rating, Velvetleaf ([3]; 125 g ai/ha): 55
Plant response rating, Oilseed Rape ([4]; 16 g ai/ha): 5
Plant response rating, Oilseed Rape ([4]; 31 g ai/ha): 35
Plant response rating, Oilseed Rape ([4]; 62 g ai/ha): 85
Plant response rating, Oilseed Rape ([4]; 125 g ai/ha): 95
Plant response rating, Nutsedge, Yellow ([5]; 16 g ai/ha): 0
Plant response rating, Nutsedge, Yellow ([5]; 31 g ai/ha): 0
Plant response rating, Nutsedge, Yellow ([5]; 62 g ai/ha): 0
Plant response rating, Nutsedge, Yellow ([5]; 125 g ai/ha): 15
Plant response rating, Morningglory ([6]; 16 g ai/ha): 0
Plant response rating, Morningglory ([6]; 31 g ai/ha): 0
Plant response rating, Morningglory ([6]; 62 g ai/ha): 10
Plant response rating, Morningglory ([6]; 125 g ai/ha): 25
Plant response rating, Barnyardgrass ([7]; 16 g ai/ha): 5
Plant response rating, Barnyardgrass ([7]; 31 g ai/ha): 10
Plant response rating, Barnyardgrass ([7]; 62 g ai/ha): 35
Plant response rating, Barnyardgrass ([7]; 125 g ai/ha): 75
Plant response rating, Corn (corn (Zea mays) [8]; 16 g ai/ha): 0
Plant response rating, Corn (corn (Zea mays) [8]; 31 g ai/ha): 0
Plant response rating, Corn (corn (Zea mays) [8]; 62 g ai/ha): 10
Plant response rating, Corn (corn (Zea mays) [8]; 125 g ai/ha): 10
Plant response rating, Ryegrass, Italian ([9]; 16 g ai/ha): 0
Plant response rating, Ryegrass, Italian ([9]; 31 g ai/ha): 0
Plant response rating, Ryegrass, Italian ([9]; 62 g ai/ha): 10
Plant response rating, Ryegrass, Italian ([9]; 125 g ai/ha): 30
Plant response rating, Soybean (soybean (Glycine max); 16 g ai/ha): 50
Plant response rating, Soybean (soybean (Glycine max); 31 g ai/ha): 40
Plant response rating, Soybean (soybean (Glycine max); 62 g ai/ha): 50
Plant response rating, Soybean (soybean (Glycine max); 125 g ai/ha): 55
Plant response rating, Wheat ([10]; 16 g ai/ha): 0
Plant response rating, Wheat ([10]; 31 g ai/ha): 0
Plant response rating, Wheat ([10]; 62 g ai/ha): 0
Plant response rating, Wheat ([10]; 125 g ai/ha): 0
Plant response rating, Johnsongrass ([11]; 16 g ai/ha): 5
Plant response rating, Johnsongrass ([11]; 31 g ai/ha): 5
Plant response rating, Johnsongrass ([11]; 62 g ai/ha): 10
Plant response rating, Johnsongrass ([11]; 125 g ai/ha): 10
Plant response rating, Blackgrass ([12]; 16 g ai/ha): 5
Plant response rating, Blackgrass ([12]; 31 g ai/ha): 5
Plant response rating, Blackgrass ([12]; 62 g ai/ha): 10
Plant response rating, Blackgrass ([12]; 125 g ai/ha): 20
Plant response rating, Velvetleaf ([13]; 16 g ai/ha): 25
Plant response rating, Velvetleaf ([13]; 31 g ai/ha): 35
Plant response rating, Velvetleaf ([13]; 62 g ai/ha): 40
Plant response rating, Velvetleaf ([13]; 125 g ai/ha): 65
Plant response rating, Nutsedge, Yellow ([14]; 16 g ai/ha): 0
Plant response rating, Nutsedge, Yellow ([14]; 31 g ai/ha): 5
Plant response rating, Nutsedge, Yellow ([14]; 62 g ai/ha): 5
Plant response rating, Nutsedge, Yellow ([14]; 125 g ai/ha): 10
Plant response rating, Morningglory ([15]; 16 g ai/ha): 20
Plant response rating, Morningglory ([15]; 31 g ai/ha): 35
Plant response rating, Morningglory ([15]; 62 g ai/ha): 40
Plant response rating, Morningglory ([15]; 125 g ai/ha): 45
Plant response rating, Barnyardgrass ([16]; 16 g ai/ha): 5
Plant response rating, Barnyardgrass ([16]; 31 g ai/ha): 5
Plant response rating, Barnyardgrass ([16]; 62 g ai/ha): 5
Plant response rating, Barnyardgrass ([16]; 125 g ai/ha): 10
Plant response rating, Corn (corn (Zea mays) [17]; 16 g ai/ha): 10
Plant response rating, Corn (corn (Zea mays) [17]; 31 g ai/ha): 10
Plant response rating, Corn (corn (Zea mays) [17]; 62 g ai/ha): 20
Plant response rating, Corn (corn (Zea mays) [17]; 125 g ai/ha): 15
Plant response rating, Galium ([18]; 16 g ai/ha): 45
Plant response rating, Galium ([18]; 31 g ai/ha): 50
Plant response rating, Galium ([18]; 62 g ai/ha): 60
Plant response rating, Galium ([18]; 125 g ai/ha): 75
Plant response rating, Kochia (kochia (Kochia scoparia); 16 g ai/ha): 10
Plant response rating, Kochia (kochia (Kochia scoparia); 31 g ai/ha): 50
Plant response rating, Kochia (kochia (Kochia scoparia); 62 g ai/ha): 70
Plant response rating, Kochia (kochia (Kochia scoparia); 125 g ai/ha): 85
Plant response rating, Waterhemp ([19]; 16 g ai/ha): 60
Plant response rating, Waterhemp ([19]; 31 g ai/ha): 70
Plant response rating, Waterhemp ([19]; 62 g ai/ha): 85
Plant response rating, Waterhemp ([19]; 125 g ai/ha): 85
Plant response rating, Ryegrass, Italian ([20]; 16 g ai/ha): 0
Plant response rating, Ryegrass, Italian ([20]; 31 g ai/ha): 5
Plant response rating, Ryegrass, Italian ([20]; 62 g ai/ha): 5
Plant response rating, Ryegrass, Italian ([20]; 125 g ai/ha): 10
Plant response rating, Foxtail, Giant ([21]; 16 g ai/ha): 10
Plant response rating, Foxtail, Giant ([21]; 31 g ai/ha): 10
Plant response rating, Foxtail, Giant ([21]; 62 g ai/ha): 15
Plant response rating, Foxtail, Giant ([21]; 125 g ai/ha): 20
